Data reported in patent US9409907B2, “Inhibitor compounds” (Cancer Research Technology Limited, priority 2012, dated 2016).
pIC50: −log10 of the molar value.

Molecular target: full length MPS1 (Homo sapiens (Human), UniProt P33981)
Experiment: Measurement of inhibition of MPS1 kinase (Caliper EZ reader mobility-shift enzyme assay)
Format: biochemical
Conditions: full length MPS1 12.5 nM or 3 nM, H236 peptide 5 μM, ATP 10 μM, 60 min at room temperature
Description: Measurement of Inhibition of MPS1 Kinase
The reaction was carried out for 60 min at room temperature and stopped by the addition of buffer (10 μl) containing 20 mM EDTA, 0.05% (v/v) Brij-35, in 0.1M HEPES-buffered saline (Free acid, Sigma, UK). The plate was read on a Caliper EZ reader II (Caliper Life Sciences).
The % inhibition of the compounds is calculated relative to the means of selected control wells.

Chain of full length MPS1 (P33981 whole entry): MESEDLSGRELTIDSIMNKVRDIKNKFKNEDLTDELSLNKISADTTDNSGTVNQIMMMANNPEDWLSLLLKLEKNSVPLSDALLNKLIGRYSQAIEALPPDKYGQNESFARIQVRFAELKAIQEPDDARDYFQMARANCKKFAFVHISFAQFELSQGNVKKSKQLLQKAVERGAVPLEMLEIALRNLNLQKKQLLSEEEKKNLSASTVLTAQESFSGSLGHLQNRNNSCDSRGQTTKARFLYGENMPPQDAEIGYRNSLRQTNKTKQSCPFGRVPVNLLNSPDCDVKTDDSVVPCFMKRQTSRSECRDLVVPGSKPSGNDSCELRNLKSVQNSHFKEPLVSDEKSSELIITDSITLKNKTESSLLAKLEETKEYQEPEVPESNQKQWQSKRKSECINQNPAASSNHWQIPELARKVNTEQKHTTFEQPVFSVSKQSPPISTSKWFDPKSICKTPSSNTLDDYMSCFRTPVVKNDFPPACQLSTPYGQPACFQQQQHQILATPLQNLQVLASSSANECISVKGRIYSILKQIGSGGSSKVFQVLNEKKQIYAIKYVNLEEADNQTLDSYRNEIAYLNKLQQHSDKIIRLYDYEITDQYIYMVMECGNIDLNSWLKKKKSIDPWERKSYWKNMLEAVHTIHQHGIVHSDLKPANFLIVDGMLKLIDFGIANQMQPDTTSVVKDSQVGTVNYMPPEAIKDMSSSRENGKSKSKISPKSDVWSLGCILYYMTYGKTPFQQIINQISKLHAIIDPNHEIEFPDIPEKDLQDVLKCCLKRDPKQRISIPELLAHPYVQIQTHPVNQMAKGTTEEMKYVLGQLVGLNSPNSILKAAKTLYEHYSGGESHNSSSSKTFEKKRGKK

SMILES	pIC50
COc1cc(-c2cnn(C)c2)ccc1Nc1ncc2ccnc(N3CCC4(CCOC4)C3)c2n1 (centres unmarked) [Example 122, N-(2-methoxy-4-(1-methyl-1H-pyrazol-4-yl)phenyl)-8-(2-oxa-7-azaspiro[4.4]nonan-7-yl)pyrido[3,4-d]pyrimidin-2-amine]	8.52
COc1cc(-c2cnn(C)c2)ccc1Nc1ncc2ccnc(NCC(C)(C)O)c2n1 [Example 71, 1-((2-((2-methoxy-4-(1-methyl-1H-pyrazol-4-yl)phenyl)amino)pyrido[3,4-d]pyrimidin-8-yl)amino)-2-methylpropan-2-ol]	8.22
COc1cc(N2CCN(C)CC2)ccc1Nc1ncc2ccnc(NCC(C)(C)C)c2n1 [Example 173, N2-(2-methoxy-4-(4-methylpiperazin-1-yl)phenyl)-N8-neopentylpyrido[3,4-d]pyrimidine-2,8-diamine]	8.40
COc1cc(-c2cnn(C)c2)ccc1Nc1ncc2ccnc(NC[C@@]3(C)CCOC3)c2n1 [Example 142, (R)—N^2-(2-methoxy-4-(1-methyl-1H-pyrazol-4-yl)phenyl)-N^3-((3-methyltetrahydrofuran-3-yl)methyl)pyrido[3,4-d]pyrimidine-2,8-diamine]	8.52
CS(=O)(=O)c1ccc(Nc2ncc3ccnc(N4CCC5(COC5)C4)c3n2)c(Cl)c1 [Example 199]	7.60
Cn1cc(-c2ccc(Nc3cc4c(-c5cnn(C)c5)cccc4cn3)c(Cl)c2)cn1 [Example 23]	6.65
COc1cc(-c2cnn(C)c2)ccc1Nc1ncc2ccnc(NCCO)c2n1 [Example 126, 2-(2-(2-Methoxy-4-(1-methyl-1H-pyrazol-4-yl)phenylamino)pyrido[3,4-d]pyrimidin-8-ylamino)ethanol]	7.96
COc1cc(-c2cnn(C)c2)ccc1Nc1ncc2ccnc(N3CCC(CO)C3)c2n1 (centres unmarked) [Example 133, (1-(2-(2-Methoxy-4-(1-methyl-1H-pyrazol-4-yl)phenylamino)pyrido[3,4-d]pyrimidin-8-yl)pyrrolidin-3-yl)methanol]	8.52
COc1cc(-c2cnn(C)c2)ccc1Nc1ncc2ccnc(N3CCC(C)C3)c2n1 (centres unmarked) [Example 56, N-(2-methoxy-4-(1-methyl-1H-pyrazol-4-yl)phenyl)-8-(3-methylpyrrolidin-1-yl)pyrido[3,4-d]pyrimidin-2-amine]	8.00
COC(C)(C)CNc1nccc2cnc(Nc3ccc(F)cc3OC(F)F)nc12 [Example 203]	7.34
COc1cc(-c2cnn(C)c2)ccc1Nc1ncc2ccnc(NC(CO)CO)c2n1 [Example 130, 2-(2-(2-Methoxy-4-(1-methyl-1H-pyrazol-4-yl)phenylamino)pyrido[3,4-d]pyrimidin-8-ylamino)propane-1,3-diol]	8.40
CN1CCC(NC(=O)c2ccc(Nc3cc4c(-c5cnn(C)c5)cccc4cn3)c(OC(F)(F)F)c2)CC1 [Example 6, 4-((5-(1-methyl-1H-pyrazol-4-yl)isoquinolin-3-yl)amino)-N-(1-methylpiperidin-4-yl)-3-(trifluoromethoxy)benzamide]	6.53
Cc1nnc(-c2ccc(Nc3ncc4ccnc(N5CCC6(COC6)C5)c4n3)c(Cl)c2)o1 [Example 201]	7.40
CCOc1cc(-c2nncn2C)ccc1Nc1ncc2ccnc(NCC(C)(C)OC)c2n1 [Example 188]	8.70
COc1cc(-c2cnn(C)c2)ccc1Nc1ncc2ccnc(N3CC(OC)C3)c2n1 [Example 67, N-(2-methoxy-4-(1-methyl-1H-pyrazol-4-yl)phenyl)-8-(3-methoxyazetidin-1-yl)pyrido[3,4-d]pyrimidin-2-amine]	8.00
COc1cc(-c2cn(C)nc2C)ccc1Nc1ncc2cc(C)nc(NCC(C)(C)OC)c2n1 [Example 192]	8.30
COc1cc(C(=O)N2CC(OC)C2)ccc1Nc1cc2c(-c3ccnn3C)cccc2cn1 [Example 9, (3-methoxy-4-((5-(1-methyl-1H-pyrazol-5-yl)isoquinolin-3-yl)amino)phenyl)(3-methoxyazetidin-1-yl)methanone]	7.66
COc1cc(C(=O)N2CC(OC)C2)ccc1Nc1cc2c(-c3cnn(C)c3C)cccc2cn1 [Example 13, (4-((5-(1,5-dimethyl-1H-pyrazol-4-yl)isoquinolin-3-yl)amino)-3-methoxyphenyl)(3-methoxyazetidin-1-yl)methanone]	7.92
COc1cc(C(=O)N2CC(OC)C2)ccc1Nc1cc2c(-c3cnn(C4CCN(C)CC4)c3)cccc2cn1 [Example 19, (3-Methoxy-4-((5-(1-(1-methylpiperidin-4-yl)-1H-pyrazol-4-yl)isoquinolin-3-yl)amino)phenyl)(3-methoxyazetidin-1-yl)methanone]	7.51

SMILES	pIC50
COc1cc(-c2cnn(C)c2)ccc1Nc1ncc2ccnc(NCC3(CO)COC3)c2n1 [Example 132, (3-((2-(2-Methoxy-4-(1-methyl-1H-pyrazol-4-yl)phenylamino)pyrido[3,4-d]pyrimidin-8-ylamino)methyl)oxetan-3-yl)methanol]	< 6.00
COc1cc(-c2cnn(C)c2)ccc1Nc1ncc2ccnc(NCC3(O)CCC3)c2n1 [Example 89, 1-((2-(2-methoxy-4-(1-methyl-1H-pyrazol-4-yl)phenylamino)pyrido[3,4-d]pyrimidin-8-ylamino)methyl)cyclobutanol]	8.15
COc1cc(-c2cnn(C)c2)ccc1Nc1ncc2ccnc(NCC3(F)COC3)c2n1 [Example 124, N^8-((3-fluorooexetan-3-yl)methyl)-N^2-(2-methoxy-4-(1-methyl-1H-pyrazol-4-yl)phenyl)pyrido[3,4-d]pyrimidine-2,8-diamine]	< 6.00
COc1cc(-c2cn(C)nc2C)ccc1Nc1ncc2ccnc(NCC(C)(C)OC)c2n1 [Example 190]	8.52
COc1cc(C(=O)N2CC(OC)C2)ccc1Nc1cc2c(-c3cccnc3)cccc2cn1 [Example 21, (3-Methoxy-4-((5-(pyridin-3-yl)isoquinolin-3-yl)amino)phenyl)(3-methoxyazetidin-1-yl)methanone]	7.52
COc1cc(-c2cnn(C)c2)ccc1Nc1ncc2ccnc(N3CCS(=O)(=O)CC3)c2n1 [Example 118, 4-(2-((2-methoxy-4-(1-methyl-1H-pyrazol-4-yl)phenyl)amino)pyrido[3,4-d]pyrimidin-8-yl)thiomorpholine 1,1-dioxide]	7.96
Cc1ncc(-c2ccc(Nc3cc4c(-c5cnn(C)c5)cccc4cn3)c(Cl)c2)n1C [Example 11, N-(2-chloro-4-(1,2-dimethyl-1H-imidazol-5-yl)phenyl)-5-(1-methyl-1H-pyrazol-4-yl)isoquinolin-3-amine]	8.22
COc1cc(-c2cnn(C)c2)ccc1Nc1ncc2ccnc(N3CC4(CCOCC4)C3)c2n1 [Example 119, N-(2-methoxy-4-(1-methyl-1H-pyrazol-4-yl)phenyl)-8-(7-oxa-2-azaspiro[3.5]nonan-2-yl)pyrido[3,4-d]pyrimidin-2-amine]	8.52
COc1cc(-c2cnn(C)c2)ccc1Nc1ncc2ccnc(N3CC(C#N)C3)c2n1 [Example 121, 1-(2-(2-methoxy-4-(1-methyl-1H-pyrazol-4-yl)phenylamino)pyrido[3,4-d]pyrimidin-8-yl)azetidine-3-carbonitrile]	8.10
COc1cc(-c2cnn(CCO)c2)ccc1Nc1ncc2ccnc(NC3CCCCC3)c2n1 [Example 43, 2-(4-(4-((8-(cyclohexylamino)pyrido[3,4-d]pyrimidin-2-yl)amino)-3-methoxyphenyl)-1H-pyrazol-1-yl)ethanol]	7.85
COC1CN(C(=O)c2ccc(Nc3cc4c(-c5cnn(C)c5)cccc4cn3)c(Cl)c2)C1 [Example 22]	7.00
COc1cc(-c2cnn(C)c2)ccc1Nc1ncc2ccnc(NCC3COC3)c2n1 [Example 72, N2-(2-methoxy-4-(1-methyl-1H-pyrazol-4-yl)phenyl)-N8-(oxetan-3-ylmethyl)pyrido[3,4-d]pyrimidine-2,8-diamine]	8.30
CCOc1cc(-c2cnn(C)c2)ccc1Nc1ncc2ccnc(N3CCC4(COC4)C3)c2n1 [Example 159, N-(2-ethoxy-4-(1-methyl-1H-pyrazol-4-yl)phenyl)-8-(2-oxa-6-azaspiro[3.4]octan-6-yl)pyrdio[3,4-d]pyrimidin-2-amine]	8.30
COc1cc(Cl)ccc1Nc1ncc2ccnc(N3CCC4(COC4)C3)c2n1 [Example 178, N-(4-Chloro-2-methoxyphenyl)-8-(2-oxa-6-azaspiro[3.4]octan-6-yl)pyrido[3,4-d]pyrimidin-2-amine]	7.62
COc1cc(C(=O)N2CC(OC)C2)ccc1Nc1cc2c(-c3ccn(C)n3)cccc2cn1 [Example 12, (3-methoxy-4-((5-(1-methyl-1H-pyrazol-3-yl)isoquinolin-3-yl)amino)phenyl)(3-methoxyazetidin-1-yl)methanone]	7.59
COc1cc(-c2cnn(C)c2C)ccc1Nc1ncc2ccnc(NCC(C)(C)OC)c2n1 [Example 147, N^2-(4-(1,5-dimethyl-1H-pyrazol-4-yl)-2-methoxyphenyl)-N^8-(2-methoxy-2-methylpropyl)pyrido[3,4-d]pyrimidine-2,8-diamine]	8.70
COc1cc(-c2nnnn2C)ccc1Nc1ncc2ccnc(NCC(C)(C)OC)c2n1 [Example 163, N^8-(2-Methoxy-2-methylpropyl)-N^2-(2-methoxy-4-(1-methyl-1H-tetrazol-5-yl)phenyl)pyrido[3,4-d]pyrimidine-2,8-diamine]	8.70
COc1cc(-c2cnn(C)c2)ccc1Nc1ncc2ccnc(NCC3(O)CC3)c2n1 [Example 112, 1-((2-(2-methoxy-4-(1-methyl-1H-pyrazol-4-yl)phenylamino)pyrido[3,4-d]pyrimidin-8-ylamino)methyl)cyclopropanol]	8.30
COc1cc(OC2CCN(C)CC2)ccc1Nc1cc2c(-c3cnn(C)c3)cccc2cn1 [Example 29, N-(2-Methoxy-4-((1-methylpiperidin-4-yl)oxy)phenyl)-5-(1-methyl-1H-pyrazol-4-yl)isoquinolin-3-amine]	7.77
